In publication doi:10.1101/2024.03.22.586364, “Development of quantitative high-throughput screening assays to identify, validate, and optimize small-molecule stabilizers of misfolded β-glucocerebrosidase with therapeutic potential for Gaucher disease and Parkinson’s disease” (bioRxiv, 2024):
Where a chain is given by its changes, count along the chain named. Counter-ions that a name gives are not always drawn.

How the values were obtained:
[1] = biological target: T1, HiBiT-GCase-WT (Homo sapiens, UniProt P04062); assay: HiBiT-GCase-WT lytic luminescence assay, H4 reporter cells; assay type: cell-based; conditions: 24 h treatment, 1536-well format
T1 construct: expressed in transfected cells; host or cells: GBA1-KO H4 human neuroglioma cells; transgene stably integrated at the CLYBL safe-harbor locus by TALENs; CAG promoter
T1 sequence (P04062 40-536): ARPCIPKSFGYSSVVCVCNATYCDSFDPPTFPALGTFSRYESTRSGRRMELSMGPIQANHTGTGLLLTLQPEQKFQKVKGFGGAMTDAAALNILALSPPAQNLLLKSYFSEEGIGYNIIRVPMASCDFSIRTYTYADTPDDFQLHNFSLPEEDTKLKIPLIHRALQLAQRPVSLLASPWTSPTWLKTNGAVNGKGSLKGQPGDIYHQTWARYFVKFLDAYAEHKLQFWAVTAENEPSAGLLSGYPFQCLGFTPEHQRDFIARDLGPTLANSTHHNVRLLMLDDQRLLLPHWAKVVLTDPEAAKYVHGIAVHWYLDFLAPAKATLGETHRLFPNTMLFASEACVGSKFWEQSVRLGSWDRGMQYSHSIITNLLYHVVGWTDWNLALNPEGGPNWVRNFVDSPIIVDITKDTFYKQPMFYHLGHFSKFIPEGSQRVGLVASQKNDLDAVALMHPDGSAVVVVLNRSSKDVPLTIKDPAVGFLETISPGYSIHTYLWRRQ
Description: (§1) Figure 1. HiBiT-tagged GCase retains normal trafficking and function, enabling a high-throughput screening assay measuring cellular GCase levels. (A) GCase was labeled with a small (1.3 kDa), pro-luminescent, N-terminal HiBiT peptide tag immediately following the signal peptide (SP) sequence. (B) This HiBiT-GCase reporter (WT, N370S, or L444P) was engineered into a human Citrate Lyase Beta-Like (CLYBL) intragenic safe-harbor locus within a GBA1-KO H4 cell background using TALEN-enhanced integrative gene transfer. (C) Co-localization of GCase (green) with lysosomal marker LAMP1 (magenta) was determined by immunofluorescent staining. […] (G) GCase protein levels were quantitated by AlphaLISA (Amplified Luminescent Proximity Homogeneous Assay) utilizing a sandwich configuration of two monoclonal antibodies recognizing non-overlapping epitopes, hGCase-1/23 (which was biotinylated and associated with a streptavidin-coated donor bead) and hGCase-1/17 (which was directly conjugated to an acceptor bead). […] (H) GCase activity was measured in cell lysates using the fluorogenic substrate 4-methylumbelliferyl-β-D-glucopyranoside. Relative GCase activity was calculated by adjusting for protein concentration, correcting for GBA1-KO H4 cell background, and normalizing to GBA1-WT signal. […]

[2] = biological target: T2, HiBiT-GCase-N370S (Homo sapiens, UniProt P04062, N409S); assay: HiBiT-GCase-N370S lytic luminescence assay, H4 reporter cells; assay type: cell-based; conditions: 24 h treatment, 1536-well format
T2 construct: expressed in transfected cells; host or cells: GBA1-KO H4 human neuroglioma cells; transgene stably integrated at the CLYBL safe-harbor locus by TALENs; CAG promoter
T2 sequence (P04062 40-536 N409S): T1 sequence (P04062 40-536) with N370S
Description: as §1

[3] = biological target: T3, recombinant GCase-WT (Homo sapiens, UniProt P04062); assay: Microscale thermophoresis (MST) target engagement; assay type: binding; conditions: 50 mM sodium citrate buffer (pH 5.5); n = 2; read-out: dissociation constant (Kd)
T3 construct: purchased Bio-Techne 7410-GHB-020
T3 sequence (P04062 40-536): T1 sequence (P04062 40-536)
Method: Microscale thermophoresis (MST) experiments were performed using the Monolith NT.Automated instrument (NanoTemper Technologies). […] The recombinant GCase was further diluted with assay buffer (50 mM sodium citrate, pH 5.5) to 0.160 mg/mL and incubated (RT) for 30 min with 50 nM RED-tris-NTA 2nd Generation dye from the Monolith His-Tag Labeling Kit (Cat.#MO-L018; NanoTemper Technologies). The labeling reaction mixture was centrifuged for 10 min at 4°C and 15,000 × g to remove protein aggregates, after which the supernatant was diluted 2.5x with assay buffer. For each compound measured, a 12-point, 2x titration series of compound in DMSO was prepared; 1 μL of compound in DMSO from each point in the titration series was combined with 9 μL of assay buffer and 10 μL of labeled GCase in a 384-well plate, which was left standing for 30 min (RT). The resultant final concentration of labeled GCase was ~570 nM (in 5% DMSO).

[4] = system: integrated stress response (ISR); parameters: method as in PMID 23741617; conditions: read-out: IC50 (potency with which ISRIB modifies its target); cited from earlier work

Row | Kd [3] | Compound | effect on HiBiT-GCase-WT levels (in words) [1] | effect on HiBiT-GCase-N370S levels (in words) [2] | IC50 [4]
1 | – | C#Cc1ccc(NC(=O)c2cnn3c(C)cc(C)nc23)cc1 [NCGC758] | inactive in all three lines | inactive in all three lines | –
2 | 3750 nM | O=C(COc1ccccc1C(=O)Nc1ccc(I)cc1)Nc1ccc(I)cc1 [NCGC00241326-01, N-(4-iodophenyl)-2-(2-((4-iodophenyl)amino)-2-oxoethoxy)benzamide] | – | – | –
3 | – | Nc1c(Br)cc(Br)cc1CN[C@H]1CC[C@H](O)CC1 [NCGC00371077-02, Ambroxol HCl] | increased HiBiT-GCase levels in all three lines | increased HiBiT-GCase levels in all three lines | –
4 | – | O=C(COc1ccc(Cl)cc1)N[C@H]1CC[C@H](NC(=O)COc2ccc(Cl)cc2)CC1 [NCGC00384174-12, trans-ISRIB] | – | – | 5 nM
